Test results reported in patent EP4596574A1, “GLP-1/GCG/GIP TRIPLE-RECEPTOR AGONIST AND USE THEREOF” (Sunshine Lake Pharma Co., Ltd., priority 2022, dated 2024).
Marks after values point to notes of the source that are not given here.

How the values were obtained:
[1] = Glucose tolerance assessment in normal C57BL/6 mice (Example 5); type: in vivo; conditions: 3 nmol/kg s.c. single dose, 24 h after administration
Procedure, shortened: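 Normal C57BL/6 mice given a single dose, fasted 12 h starting 12 h post-dose, then challenged with 2 g/kg glucose i.p. Tail-vein glucose measured at baseline and 15, 30, 60, 90 min. AUC0~90min calculated from the glucose–time curve per dose group.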

[2] = Pharmacokinetic study in rats, single subcutaneous injection; conditions: male, Sprague Dawley, in vivo, sc, rat, 50 nmol/kg single subcutaneous injection, plasma
Procedure: The pharmacokinetic study of each polypeptide compound prepared in Example 1 was conducted using male Sprague Dawley rats. There were 3 male rats in each group. […] The dose was 50 nmol/kg, and a single subcutaneous injection was given (see Table 3 for specific peptide compounds). After administration, plasma was collected on the specified days and time points, and the concentration of each peptide compound in the plasma was detected by LC-MS/MS method. The pharmacokinetic parameters were obtained based on the concentration data, which were used to describe the pharmacokinetic properties of the peptide in rats after subcutaneous injection. Table 3: Summary of pharmacokinetic parameters of some triple-target peptides in rats

[3] = Glucose tolerance assessment in normal C57BL/6 mice (Example 4); type: in vivo; conditions: 3 nmol/kg s.c. single dose, 24 h after administration
Procedure, shortened: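 Twelve hours after a single administration, mice were fasted 12 h and then given 2 g/kg glucose i.p. Tail-vein blood glucose was measured at baseline and at 15, 30, 60 and 90 min. AUC0–90min was calculated per dose group at 24 h post-dose.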

[4] = 15 min after 2 g/kg glucose i.p.
[5] = 30 min after 2 g/kg glucose i.p.
[6] = 60 min after 2 g/kg glucose i.p.
[7] = 90 min after 2 g/kg glucose i.p.
[8] = basal before 2 g/kg glucose i.p.
[9] = blood glucose AUC, 2 g/kg glucose i.p.

SMILES	Blood glucose level (mM) 15 min [1, 4] [mM]	Blood glucose level (mM) 30 min [1, 5] [mM]	Blood glucose level (mM) 60 min [1, 6] [mM]	Blood glucose level (mM) 90 min [1, 7] [mM]	Blood glucose level (mM) 0 min [1, 8] [mM]	AUC0-90 min [1, 9]	AUC(0-inf) [2] [ng·h/mL]	AUC(0-t) [2] [ng·h/mL]	Cmax [2] [ng/mL]	half-life ([2]; read-out: T1/2 (converted)) [h]	Tmax ([2]; read-out: Tmax) [h]	Blood glucose level (mM) 15 min [3, 4] [mM]	Blood glucose level (mM) 30 min [3, 5] [mM]	Blood glucose level (mM) 60 min [3, 6] [mM]	Blood glucose level (mM) 90 min [3, 7] [mM]	Blood glucose level (mM) 0 min [3, 8] [mM]	AUC0-90 min [3, 9]
CC[C@H](C)[C@H](NC(=O)[C@H](Cc1ccccc1)NC(=O)[C@H](C)NC(=O)[C@H](CCCNC(=N)N)NC(=O)[C@H](CCC(N)=O)NC(=O)[C@H](CCCNC(=N)N)NC(=O)[C@H](CCCCNC(=O)COCCOCCNC(=O)CC[C@H](NC(=O)CCCCCCCCCCCCCCCCCCC(=O)O)C(=O)O)NC(=O)[C@H](CCC(=O)O)NC(=O)[C@H](CC(=O)O)NC(=O)[C@H](CC(C)C)NC(=O)[C@H](CC(C)C)NC(=O)[C@@H](NC(=O)[C@H](CO)NC(=O)[C@H](Cc1ccc(O)cc1)NC(=O)[C@H](CC(=O)O)NC(=O)[C@H](CO)NC(=O)[C@@H](NC(=O)[C@](C)(Cc1ccccc1F)NC(=O)[C@@H](NC(=O)CNC(=O)[C@H](CCC(N)=O)NC(=O)C(C)(C)NC(=O)[C@@H](N)Cc1ccc(O)cc1)[C@@H](C)O)[C@@H](C)O)[C@@H](C)CC)C(=O)N[C@@H](CCC(=O)O)C(=O)N[C@@H](Cc1ccc(O)cc1)C(=O)N[C@@H](CC(C)C)C(=O)N[C@@H](CC(C)C)C(=O)N[C@@H](C)C(=O)NCC(=O)NCC(=O)N1CCC[C@H]1C(=O)N[C@@H](CO)C(=O)N[C@@H](CO)C(=O)NCC(=O)N[C@@H](C)C(=O)N1CCC[C@H]1C(=O)N1CCC[C@H]1C(=O)N1CCC[C@H]1C(=O)N[C@@H](CO)C(=O)O [HEC-PT86]	13.2 ± 1.4	10.3 ± 1.9	8.8 ± 1.0	7.0 ± 0.8	3.9 ± 0.2	827.3±70.3^a	–	–	–	–	–	–	–	–	–	–	–
CC[C@H](C)[C@H](NC(=O)[C@H](Cc1ccccc1)NC(=O)[C@H](CCC(=O)O)NC(=O)[C@H](CCCNC(=N)N)NC(=O)[C@H](CCC(N)=O)NC(=O)[C@H](CCCNC(=N)N)NC(=O)[C@H](CCCCNC(=O)COCCOCCNC(=O)CC[C@H](NC(=O)CCCCCCCCCCCCCCCCC(=O)O)C(=O)O)NC(=O)[C@H](CCC(=O)O)NC(=O)[C@H](CC(=O)O)NC(=O)[C@H](CC(C)C)NC(=O)[C@H](CC(C)C)NC(=O)[C@@H](NC(=O)[C@H](CO)NC(=O)[C@H](Cc1ccc(O)cc1)NC(=O)[C@H](CC(=O)O)NC(=O)[C@H](CO)NC(=O)[C@@H](NC(=O)[C@](C)(Cc1ccccc1F)NC(=O)[C@@H](NC(=O)CNC(=O)[C@H](Cc1c[nH]cn1)NC(=O)C(C)(C)NC(=O)[C@@H](N)Cc1ccc(O)cc1)[C@@H](C)O)[C@@H](C)O)[C@@H](C)CC)C(=O)N[C@@H](CCC(=O)O)C(=O)N[C@@H](Cc1c[nH]c2ccccc12)C(=O)N[C@@H](CC(C)C)C(=O)N[C@@H](CC(C)C)C(=O)N[C@@H](C)C(=O)NCC(=O)NCC(=O)N1CCC[C@H]1C(=O)N[C@@H](CO)C(=O)N[C@@H](CO)C(=O)NCC(=O)N[C@@H](C)C(=O)N1CCC[C@H]1C(=O)N1CCC[C@H]1C(=O)N1CCC[C@H]1C(=O)N[C@@H](CO)C(=O)O [HEC-PT77]	–	–	–	–	–	–	22200 ± 3840	22000 ± 3870	596 ± 213	11 ± 1.6	15 ± 11	12.6 ± 3.3	9.6 ± 3.4	8.5 ± 2.7	6.9 ± 1.9	4.0 ± 0.5	776.9±227.6^a
